According to PMC5958115, “A novel small molecule chaperone of rod opsin and its potential therapy for retinal degeneration” (Nature Communications, 2018):

Tests used:
[1] = Quantification of YC-001 in mouse eye by HPLC; assay type: in vivo, C57BL/6 mouse
Method: To measure the amount of YC-001 in the eye following systemic delivery, YC-001 was administered to C57BL/6 mice by i.p. injection at a dose of 200 mg kg^−1 bw. Mice then were euthanized at 30 min, 3 h and 24 h after these injections, and their eyes were removed for analysis. Eyes from two mice under the same treatment were homogenized on ice in 1 mL of PBS:methanol (1:1 ratio). Four-mL of hexanes were then added to the homogenized sample, and the mixture was vortexed for 15 s. The mixture was centrifuged at 3,220×g for 15 min at 4 °C to separate the hexanes from the aqueous layer. From the top hexane layer, 3.5 mL was transferred to a glass vial. This sample was then dried in a Savant speed vacuum concentrator (Thermofisher, Waltham, Massachusetts, USA) and dissolved in 300 µL methanol. One hundred-µL of dissolved sample were injected into an HPLC system connected to an Agilent Sil column (5 μm, 4.6 × 250 mm; Agilent Technologies, Santa Clara, CA) for separation with 10% ethyl acetate in hexanes at a flow rate 1.4 mL min^−1. A chromatogram of absorption at 340 nm was then obtained. A YC-001 standard was subjected to the same procedures as the ocular samples and used to establish a retention time at 13.2 min. By comparing ocular samples to its standard curve of YC-001, the amount of YC-001 was then quantified in pmol per eye at different time points after its systemic administration. The identity of YC-001 in the peak fraction with a retention time of […] was confirmed by LC–MS using the same chromatography method as applied for HPLC.

[2] = Pharmacokinetics of YC-001 in mouse plasma; assay type: in vivo, C57BL/6 mice
Method: C57BL/6J mice ranging from 8 to 12 weeks of age were purchased from Jackson Labs. For administration, YC-001 was dissolved in DMSO at 160 mg mL^−1. To obtain the blood clearance curve for YC-001, each animal was treated by i.p. injection of YC-001 at 200 mg kg^−1 bw. After administration, blood was collected at 5, 10, 15, 20, 30, 45, 60, and 90 min from the orbital sinus and dropped into K2EDTA blood collection tubes (FisherScientific). Mice were anesthetized with a ketamine/xylazine cocktail two min before blood collection. The blood samples were then incubated at 4 °C for 2 h before centrifugation at 1800×g for 20 min to collect the plasma in the supernatant. Plasma was mixed with twice the volume of methanol and then stored at −80 °C. YC-001 was extracted from the samples (300 to 600 μL) with 0.6 mL chloroform. The chloroform fraction was collected, dried, and the extracted organic compounds were dissolved in 0.25 mL of methanol. One hundred µL of each sample was injected onto an Eclipse XDB-C18 column (4.6 × 150 mm, 5 µm) and YC-001 was detected and quantified as described in the section Metabolic stability of YC-001.

[3] = target: T1, ovine COX-1 (Ovis aries, UniProt P05979); assay: COX-1 activity assay (fluorometric); assay type: biochemical; settings: up to 80 µM
T1 construct: purchased Abcam
T1 sequence (P05979 25-600): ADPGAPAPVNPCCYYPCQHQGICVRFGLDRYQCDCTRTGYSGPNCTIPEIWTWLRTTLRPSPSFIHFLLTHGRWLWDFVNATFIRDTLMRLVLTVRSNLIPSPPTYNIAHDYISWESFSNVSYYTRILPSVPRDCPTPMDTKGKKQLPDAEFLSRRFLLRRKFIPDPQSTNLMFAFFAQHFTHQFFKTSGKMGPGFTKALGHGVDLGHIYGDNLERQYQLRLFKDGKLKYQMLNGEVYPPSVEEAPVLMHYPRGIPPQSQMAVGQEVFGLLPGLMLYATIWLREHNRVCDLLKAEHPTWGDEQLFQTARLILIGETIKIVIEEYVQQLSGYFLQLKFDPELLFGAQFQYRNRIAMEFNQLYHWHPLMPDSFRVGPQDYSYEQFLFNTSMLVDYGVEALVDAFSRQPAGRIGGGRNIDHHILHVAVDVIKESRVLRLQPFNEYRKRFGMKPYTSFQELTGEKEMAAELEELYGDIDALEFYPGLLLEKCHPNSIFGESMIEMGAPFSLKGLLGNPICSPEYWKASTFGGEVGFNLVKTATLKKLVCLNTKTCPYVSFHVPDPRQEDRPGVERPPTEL
Method: The effect of the compound YC-001 on COX-1 activity was evaluated using the COX-1 Inhibitor Screening Kit (Abcam, Cambridge, MA, USA) according to the manufacture’s protocol. Briefly, the assay is based on the fluorometric detection of Prostaglandin G2, the intermediate product generated by the COX-1 enzyme. COX reaction mix included ovine COX-1, COX probe, and COX cofactor was prepared in a 96-well plate. YC-001 working solutions were dissolved in DMSO, and then mixed with COX Reaction Mix to the final concentrations (80, 40, 20, 10, 5, 2.5, 1.25, 0.625, 0.312, 0.156, 0.078 and 0.039 µM). Equivalent volume of DMSO was used as vehicle control and SC560 was used as a positive control. All controls and samples were measured in triplicate. Then arachidonic acid was added into each well to initiate all the reactions at the same time. The fluorescence was measured at Ex/Em = 535/587 nm in a kinetic mode for 15 min at 25 °C. Five time points were chosen in the linear range of the plot and the corresponding values for the fluorescence were used to calculate the slope of the linear regression equation. Relative COX-1 activity was calculated as Eq. 5: RelativeCOX-1Activity(%)=Slopeofsample/Slopeofenzymecontrol×100 .

[4] = system: C57BL/6 mice; assay: Toxicity by daily i.p. injections, survival, behavior and body weight; assay type: in vivo; settings: 200 and 100 mg kg^−1 bw daily i.p., day 14 to 38, vs DMSO
Method: To estimate the long-term toxicity of YC-001 in mice, we administered YC-001 to C57BL/6 mice by daily i.p. injections from Day 14 to 38 after birth with one of two doses, either 100 mg kg^−1 or 200 mg kg^−1 bw. Equivalent volumes of DMSO were injected into control groups. Body weights of treated mice were measured daily. Each dosage group contained three mice including males and females.

[5] = target: T2, human clarin-1 N48K (Homo sapiens, UniProt P58418, N48K); assay: Image-based analysis of Clarin-1-N48K-Venus in HEK 293 cells; assay type: cell-based; settings: 24 h
T2 construct: expressed in transfected cells
T2 sequence (P58418 whole entry N48K): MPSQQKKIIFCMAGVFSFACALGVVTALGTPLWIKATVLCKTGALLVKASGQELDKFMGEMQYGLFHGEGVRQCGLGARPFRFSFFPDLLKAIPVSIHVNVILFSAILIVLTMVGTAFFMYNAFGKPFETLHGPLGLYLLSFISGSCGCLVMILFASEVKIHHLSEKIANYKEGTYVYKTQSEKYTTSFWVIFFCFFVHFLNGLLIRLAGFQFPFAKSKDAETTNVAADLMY
Method: HEK 293 stable cells co-expressing human clarin-1 N48K-Venus fluorescent protein and DsRed-Express-DR fusion protein were obtained from Dr. Yoshikazu Imanishi at Case Western Reserve University (CWRU). Cells were cultured in DMEM medium with 10% FBS following guidelines from ATCC. To test effects of YC-001 treatments on clarin-1 N48K-Venus amounts in these cells, an image-based assay was performed. Briefly, cells were seeded at 20,000 cells per well in 40 µL per well DMEM medium with 10% FBS in a 384-well PerkinElmer View plate coated with poly-D-lysine and cultured at 37 °C with 5% CO2 for 24 h. Cells then were treated with 10 µL per well DMEM medium with 10% FBS containing 5× the final concentration of tested compounds. […] Each compound was tested with 10 doses in a twofold dilution series, featuring three biological replicates. The 384-well plate was put back for incubation at 37 °C with 5% CO2. After 24 h of exposure to test compounds, the plate was removed, and the medium was aspirated and replaced by 20 µL per well of 4% paraformaldehyde for fixation at RT for 20 min. […] Images were analyzed by the Columbus storage and analysis system (PerkinElmer). Hoechst33342 fluorescence images were used to define nuclei and count cells. […] YFP and DsRed fluorescence intensities per cell were measured in each well.

O=C1OCC(c2ccc(Cl)s2)=C1c1cccs1 [YC-001]
amount of YC-001 in eye ([1]; 0.5 h after i.p. 200 mg kg^−1 bw): About 70 pmol per eye | amount of YC-001 in eye ([1]; 3 h after i.p. 200 mg kg^−1 bw): 280 pmol per eye | amount of YC-001 in eye ([1]; 24 h after i.p. 200 mg kg^−1 bw): undetectable | k el ([2]; C57BL/6J, mouse, plasma, intraperitoneal, 200 mg kg^−1 bw, estimated from T1/2 and C0, read-out: elimination rate constant (Ke) (converted)): 0.000335 s⁻¹ | C0 ([2]; C57BL/6J, mouse, plasma, ip, i.p. 200 mg kg^−1 bw, read-out: initial plasma concentration (C0)): 7280 ng/mL | half-life ([2]; C57BL/6J, mouse, plasma, ip, i.p. 200 mg kg^−1 bw, read-out: plasma half-life (T1/2)): 34.5 min | clearance ([2]; estimated from T1/2 and C0): 0.552 L min^−1 kg^−1 bw | volume of distribution (Vd) ([2]; estimated from T1/2 and C0): 27.5 L kg^−1 bw | COX-1 enzymatic activity [3]: did not see changes | behavioral or bw growth changes [4]: no obvious behavioral or bw growth changes | effect on amount or stability of the clarin-1 N48K mutant [5]: did not affect the amount or stability
